Assay results: the NIST ThermoML archive (doi:10.1007/s10765-006-0100-z)
± gives the expanded uncertainty stated by the source.

Tests used:
[1] = xn = mol fraction of the nth substance listed; conditions: 101 kPa, Liquid; for mass density: Vibrating tube method
[2] = 101 kPa, Liquid; for mass density: Vibrating tube method

CC(C)CCl [1-chloro-2-methylpropane] + C1CCOCC1
[1]
Conditions	kinematic viscosity [m2/s]	mass density [kg/m3]
298.15 K, x2 = 0	4.93e-07 ± 7.3e-09	871.13 ± 2
298.15 K, x2 = 0.048	–	871.69 ± 2
298.15 K, x2 = 0.054	5.06e-07 ± 7.5e-09	–
298.15 K, x2 = 0.1069	5.19e-07 ± 7.6e-09	–
298.15 K, x2 = 0.1084	–	872.39 ± 2
298.15 K, x2 = 0.2033	5.46e-07 ± 7.9e-09	–
298.15 K, x2 = 0.212	–	873.53 ± 2
298.15 K, x2 = 0.29	–	874.38 ± 2
298.15 K, x2 = 0.311	5.78e-07 ± 8.3e-09	–
298.15 K, x2 = 0.3951	–	875.37 ± 2
298.15 K, x2 = 0.4126	6.11e-07 ± 8.7e-09	–
298.15 K, x2 = 0.504	6.45e-07 ± 9.1e-09	–
298.15 K, x2 = 0.5062	–	876.3 ± 2
298.15 K, x2 = 0.595	6.82e-07 ± 9.5e-09	–
298.15 K, x2 = 0.6273	–	877.23 ± 2
298.15 K, x2 = 0.6897	–	877.63 ± 2
298.15 K, x2 = 0.6954	7.27e-07 ± 1e-08	–
298.15 K, x2 = 0.8028	7.83e-07 ± 1.1e-08	–
298.15 K, x2 = 0.8111	–	878.26 ± 2
298.15 K, x2 = 0.9066	8.46e-07 ± 1.2e-08	–
298.15 K, x2 = 0.9088	–	878.68 ± 2
298.15 K, x2 = 0.952	–	878.79 ± 2
298.15 K, x2 = 0.9578	8.8e-07 ± 1.2e-08	–
313.15 K, x2 = 0	4.29e-07 ± 6.6e-09	853.51 ± 2
313.15 K, x2 = 0.0432	–	854.17 ± 2
313.15 K, x2 = 0.054	4.4e-07 ± 6.7e-09	–
313.15 K, x2 = 0.0934	–	854.93 ± 2
313.15 K, x2 = 0.1069	4.51e-07 ± 6.8e-09	–
313.15 K, x2 = 0.1923	–	856.35 ± 2
313.15 K, x2 = 0.2033	4.72e-07 ± 7.1e-09	–
313.15 K, x2 = 0.3025	–	857.83 ± 2
313.15 K, x2 = 0.311	4.97e-07 ± 7.4e-09	–
313.15 K, x2 = 0.406	–	859.08 ± 2
313.15 K, x2 = 0.4126	5.23e-07 ± 7.7e-09	–
313.15 K, x2 = 0.5018	–	860.14 ± 2
313.15 K, x2 = 0.504	5.5e-07 ± 8e-09	–
313.15 K, x2 = 0.595	5.8e-07 ± 8.3e-09	–
313.15 K, x2 = 0.6079	–	861.19 ± 2
313.15 K, x2 = 0.6954	6.16e-07 ± 8.8e-09	–
313.15 K, x2 = 0.7238	–	862.24 ± 2
313.15 K, x2 = 0.7895	–	862.78 ± 2
313.15 K, x2 = 0.8028	6.6e-07 ± 9.3e-09	–
313.15 K, x2 = 0.8874	–	863.42 ± 2
313.15 K, x2 = 0.9066	7.07e-07 ± 9.8e-09	–
313.15 K, x2 = 0.9463	–	863.68 ± 2
313.15 K, x2 = 0.9578	7.33e-07 ± 1e-08	–

CC(C)CCl [1-chloro-2-methylpropane]
[2]
Conditions	kinematic viscosity [m2/s]	mass density [kg/m3]
298.15 K	4.93e-07 ± 7.3e-09	871.13 ± 2
313.15 K	4.29e-07 ± 6.6e-09	853.51 ± 2

CC(C)(C)Cl [2-chloro-2-methylpropane]
[2]
Conditions	kinematic viscosity [m2/s]	mass density [kg/m3]
298.15 K	5.68e-07 ± 8.2e-09	836.45 ± 2
313.15 K	4.77e-07 ± 7.1e-09	818.31 ± 2

C1CCOCC1 [tetrahydropyran] + CCCCCl
[1], x1 = 1
Conditions	kinematic viscosity [m2/s]	mass density [kg/m3]
298.15 K	9.1e-07 ± 1.2e-08	878.81 ± 2
313.15 K	7.57e-07 ± 1e-08	863.67 ± 2

C1CCOCC1 [tetrahydropyran] + CC(C)CCl
[1], x1 = 1
Conditions	kinematic viscosity [m2/s]	mass density [kg/m3]
298.15 K	9.1e-07 ± 1.2e-08	878.81 ± 2
313.15 K	7.57e-07 ± 1e-08	863.67 ± 2

C1CCOCC1 [tetrahydropyran] + CC(C)(C)Cl
[1], x1 = 1
Conditions	kinematic viscosity [m2/s]	mass density [kg/m3]
298.15 K	9.1e-07 ± 1.2e-08	878.81 ± 2
313.15 K	7.57e-07 ± 1e-08	863.67 ± 2

CC(C)(C)Cl [2-chloro-2-methylpropane] + C1CCOCC1
[1]
Conditions	kinematic viscosity [m2/s]	mass density [kg/m3]
298.15 K, x2 = 0	5.68e-07 ± 8.2e-09	836.45 ± 2
298.15 K, x2 = 0.0324	–	838.08 ± 2
298.15 K, x2 = 0.0614	5.84e-07 ± 8.4e-09	–
298.15 K, x2 = 0.1075	5.96e-07 ± 8.5e-09	–
298.15 K, x2 = 0.1086	–	842.07 ± 2
298.15 K, x2 = 0.2097	–	847.11 ± 2
298.15 K, x2 = 0.2173	6.27e-07 ± 8.9e-09	–
298.15 K, x2 = 0.2891	–	851.05 ± 2
298.15 K, x2 = 0.3205	6.57e-07 ± 9.3e-09	–
298.15 K, x2 = 0.42	6.88e-07 ± 9.6e-09	–
298.15 K, x2 = 0.4276	–	857.41 ± 2
298.15 K, x2 = 0.496	–	860.32 ± 2
298.15 K, x2 = 0.5176	7.2e-07 ± 1e-08	–
298.15 K, x2 = 0.6107	–	864.98 ± 2
298.15 K, x2 = 0.6155	7.54e-07 ± 1e-08	–
298.15 K, x2 = 0.6483	–	866.46 ± 2
298.15 K, x2 = 0.7156	7.91e-07 ± 1.1e-08	–
298.15 K, x2 = 0.8093	–	872.39 ± 2
298.15 K, x2 = 0.8277	8.35e-07 ± 1.1e-08	–
298.15 K, x2 = 0.8606	–	874.22 ± 2
298.15 K, x2 = 0.9097	8.7e-07 ± 1.2e-08	–
298.15 K, x2 = 0.954	–	877.25 ± 2
298.15 K, x2 = 0.9547	8.89e-07 ± 1.2e-08	–
313.15 K, x2 = 0	4.77e-07 ± 7.1e-09	818.31 ± 2
313.15 K, x2 = 0.0451	4.87e-07 ± 7.2e-09	–
313.15 K, x2 = 0.0584	–	821.7 ± 2
313.15 K, x2 = 0.0875	–	823.35 ± 2
313.15 K, x2 = 0.0887	4.97e-07 ± 7.4e-09	–
313.15 K, x2 = 0.1943	–	829.15 ± 2
313.15 K, x2 = 0.1978	5.21e-07 ± 7.6e-09	–
313.15 K, x2 = 0.3028	–	834.83 ± 2
313.15 K, x2 = 0.3053	5.47e-07 ± 7.9e-09	–
313.15 K, x2 = 0.3972	5.7e-07 ± 8.2e-09	–
313.15 K, x2 = 0.4249	–	840.83 ± 2
313.15 K, x2 = 0.4929	–	843.99 ± 2
313.15 K, x2 = 0.5024	5.98e-07 ± 8.6e-09	–
313.15 K, x2 = 0.6093	–	849.16 ± 2
313.15 K, x2 = 0.6359	6.36e-07 ± 9e-09	–
313.15 K, x2 = 0.7052	–	853.15 ± 2
313.15 K, x2 = 0.7056	6.57e-07 ± 9.3e-09	–
313.15 K, x2 = 0.796	6.86e-07 ± 9.6e-09	–
313.15 K, x2 = 0.7988	–	856.89 ± 2
313.15 K, x2 = 0.9063	7.23e-07 ± 1e-08	–
313.15 K, x2 = 0.9097	–	860.95 ± 2
313.15 K, x2 = 0.9526	7.4e-07 ± 1e-08	–
313.15 K, x2 = 0.9614	–	862.64 ± 2
